The source of these data is US20240165274A1, “METHODS OF DETECTING SYSTEMIC AMYLOIDOSIS VIA BINDING TO MISFOLDED OR AGGREGATED PROTEIN” (Amydis, Inc., priority 2021, published 2024).

In test [1] the target is T1, aggregated TTR (Homo sapiens, UniProt P02766). Nature of the test: Fluorescence spectra of Compound 1 with TTR aggregates. The following applies: excitation 440 nm; for Fluorescence fold increase: Compound 1 4 μM, emission 565 nm, RFI over Compound 1 alone. The protocol:
Several aggregated TTR samples were prepared using different conditions as described below. • Aggregate A was prepared by resuspending TTR in 50 mM glycine buffer at a pH of about 3.6 and further incubating the same for 24 hours at room temperature. • Aggregate B1 was prepared by resuspending TTR in water at a pH of about 7.4, and further incubating the same for 7 days with stirring (200 rpm) maintained at 37° C. • Aggregate B2 was prepared by resuspending TTR in water at a pH of about 7.4, and further incubating the same for 14 days with stirring (200 rpm) maintained at 37° C.
Compound 1 (4 μM) was prepared with or without Aggregate B1 in 1× phosphate-buffered saline (PBS). The absorption, fluorescence, and excitation spectra were taken for both samples. The excitation wavelength was optimized to be 440 nm. The emission spectra thus received were adjusted against a blank solvent control to obtain relative fluorescence intensity (RFI) as a function of wavelengths.
Further, fluorescence spectra were taken on mixtures of Compound I (4 μM) with Aggregate A, B1, or B2, respectively, each at the concentration of 5 μM, at the emission wavelength of 565 nm, when excited at 440 nm. The increases in RFI over Compound 1 alone were calculated and are illustrated in Table 1: […]

The target in test [2] is T1, aggregated TTR. The experiment in a line: Binding affinity for Compound 1 with aggregated TTR (fluorescence titration, one site specific binding). To be noted: 5 μM TTR, 4% DMSO/PBS pH 7.4; Compound 1 0 to 10 μM; RFI at λmax(em); FIG. 2. As for the experimental part: A solution of DMSO/PBS (6 μL DMSO in 144 μL PBS, pH 7.4) was prepared as a blank control. Further, a 250 μM solution of Compound 1 in DMSO was prepared. The following samples were then prepared in triplicate while keeping a constant 5 μM TTR concentration in 4% DMSO/PBS:
Emission spectra were taken for each sample and adjusted against the blank over the range of 445-700 nm. RFI at λmax(em) was determined for each sample. RFI was then plotted against the increasing concentration of Compound 1 over the range of 0 to 10 μM using a one site specific binding algorithm. The binding affinity (Kd) was determined to be 0.3+/−0.1 μM. This is illustrated in FIG. 2.

Test [3] relates to TTR deposits in human tissues. The experiment in a line: Staining of FFPE human tissue sections with vitreous amyloid, co-stained with TTR antibody. To be noted: compound 60 μM, 30 minutes; adjacent sections stained with Congo red and H&E; present-tense example, binding 'contemplated'. The protocol:
The following protocol was adopted for staining Formalin-Fixed Paraffin Embedded (FFPE) tissues: • 1. Deparaffinization and hydration of tissue sections: • Pre-heat @ 60° C. 1 hour • Place slides in holders and treat with the clearing agent xylene (paraffin solvent) and a series of graded ethanol (EtOH) as follows: • i. 100% xylene—5 min • ii. 100% xylene—5 min • iii. 50%/50% xylene/100% EtOH—3 min • iv. 100% EtOH—3 min • v. 95% EtOH—3 min • vi. 70% EtOH—3 min • vii. 50% EtOH—3 min • viii. Water—2×3 min. • 2. Antigen retrieval: incubate in 99% formic acid for 5 minutes. • 3. Wash with distilled water for 5 minutes. Repeat this step two times. • 4. Pre-heat 10 mM citrate buffer pH 6.0 to boiling. • 5. Place slides in staining chamber with heated citrate buffer for 20 minutes. • 6. Cool in water bath. Wash with distilled water for 5 minutes. Repeat this step two times. • 7. […]
Sections from tissues of vitreous amyloid with known TTR mutation (paraffin embedded tissue blocks) and an autopsy eyeball with vitreous amyloid (paraffin embedded organ) are respectively stained with hematoxylin and eosin (H&E) and Congo red to mark regions with amyloidosis. […] It is contemplated that Compound 1 binds to TTR deposits in human tissues and undergoes an increase in fluorescence emission in a manner similar to its increase in fluorescence in vitro in the presence of aggregated TTR as described in earlier examples.

Usually Kd stands for the free concentration of one partner at which half of the binding sites on the other are occupied at equilibrium, for simple one-to-one binding. Read a high Kd as weaker binding. Consider `COCCOCCOCCOC(=O)/C(C#N)=C/c1ccc2cc(N3CCCCC3)ccc2c1` [Compound 1], for which the figures for the Fluorescence fold increase on aggregated TTR [1] (Aggregate A 5 μM), at aggregated TTR [1] (Aggregate B1 5 μM) and on aggregated TTR [1] (Aggregate B2 5 μM) were 4.6 fold, 2.3 fold and 2.5 fold, respectively. Besides, the “increase of relative fluorescence intensity (RFI) in presence of aggregate” value on aggregated TTR [1] (Compound 1 4 μM with vs without Aggregate B1 in 1× PBS, FIG. 1) is “about 3.2”. In addition, binding at aggregated TTR [2] was characterised by a dissociation constant (Kd) of 300 nM. The “regions of hyperfluorescence versus areas of amyloidosis” value in test [3] is “correspond to areas of amyloidosis defined using Congo Red and H&E stains”.
